Experimental findings from patent US5324747A, “N-substituted anilines, inhibitors of phospholipases A2” (Hoffmann-La Roche Inc., priority 1992, dated 1994) are described below.

One test addresses T1, HSF-PLA2 (Homo sapiens, UniProt P14555).
T1 construct: extracellular enzyme obtained from human synovial fluid (HSF-PLA2); from tissue; host or cells: pooled human synovial fluid, added at 0.1% (v/v)
T1 sequence (P14555 21-144): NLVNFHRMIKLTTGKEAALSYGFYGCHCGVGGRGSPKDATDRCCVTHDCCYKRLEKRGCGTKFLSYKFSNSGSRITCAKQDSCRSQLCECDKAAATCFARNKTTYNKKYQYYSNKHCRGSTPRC
The experiment in a line: Assay for Inhibition of HSF-PLA2 In Vitro. The format is biochemical. As to conditions: for IC50: read-out: Inhib of HSF-PLA2 IC50; for inhibition at 5 µM / inhibition at 1 µM: read-out: Inhib of HSF-PLA2, % inhibition. An outline of the steps: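 Extracellular PLA2 isolated from human synovial fluid, incubated 30 min at 37 °C with 14C-labelled phospholipid substrate in duplicate. Lipids were chloroform-extracted, and released 14C-oleic acid was separated from substrate by silica TLC; a no-enzyme control was run in each experiment.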

The test system of the next test is PLA2 Rat Paw Edema. The experiment in a line: Phospholipase A2 Rat Paw Edema. In kind it is in vivo, Lewis rats. The following applies: for inhibition in vivo at 30 mg/kg: Rattus norvegicus, 2 hr, read-out: % Inhib of PLA2 Rat Paw Edema 2 hr (30 mg/kg). An outline of the steps: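 Lewis rats (~200 g, n=7) dosed i.p. (in DMSO) or orally (in Labrafil M-1944CS) 1 h before subplantar injection of 5 ug Naja naja PLA2 into right hind paw. Paw volume by plethysmometry at 0.5, 2 and 4 hr minus baseline; % change versus vehicle, Student's t-test.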

The subject of test [1] is rat carrageenan-induced paw edema. The test is described as follows: Rat Carrageenan Paw Edema. In kind it is in vivo, Lewis rats. The following applies: 2 h, 30 mg/kg ip. On the procedure: Rat Carrageenan Paw Edema
Representative compounds of the invention were tested in rat carrageenan-induced paw edema to determine their ability to inhibit this acute inflammatory response. Test compounds are administered intraperitoneally or orally to groups of seven Lewis rats (≈200 gm) 1 hr prior to carrageenan administration. The test compounds are dissolved in dimethyl sulfoxide for intraperitoneal administration and dissolved or suspended in Labrafil […] for oral administration. At 0 hour, 0.1 mL of 1% carrageenan dissolved in pyrogen free saline is injected subplantarly into the right hind paw to elicit the inflammatory response. The volume (in mL) of the right hind paw is measured by immersion of the paw to the level of the lateral malleolus in an aqueous plethysmometer immediately prior to the injection of carrageenan and then at 1, 2 and 4 hr after carrageenan injection. The paw edema is calculated by substracting the zero time reading from the readings taken after injection. The percent change of the edema volume from the vehicle treated control is calculated to determine the activity of the test compound. Statistical analysis of the mean paw edema values of the control versus the treated groups are performed using Student's t-test.

Test [2] concerns Croton Oil Mouse Ear Edema. The experiment in a line: Croton Oil Mouse Ear Edema Test. The format is in vivo, CD-1 mice. The following applies: topical, coapplied, 6 hours.
For test [3], the system named is adjuvant arthritis model in rats. The experiment in a line: Established Adjuvant Arthritis Test. In kind it is in vivo. On the procedure:
Established Adjuvant Arthritis Test
Representative compounds of the invention were tested in the standard adjuvant arthritis model in rats, induced by Freunds complete adjuvant, as described by C. E. Brinckerhoff, J. W. Coffey and A. C. Sullivan, Science, 221, p. 756-758 (1983).

SMILES strings stand for the structures.

One may read the IC50 as the midpoint of a concentration-inhibition curve. On to `CCCCCCCCCCOc1cccc(N(CC(=O)O)CC(=O)O)c1` [Example 36a, N-(carboxymethyl)-N-[3-(decyloxy)phenyl]glycine], for which, on HSF-PLA2, the concentration for half-maximal inhibition (IC50) was 2900 nM. Also, the values for the inhibition in vivo at 30 mg/kg (with PLA2 Rat Paw Edema; in test [1]) were 35% and 47%, respectively.
On to `CCCCCCCCCCCCCCCCCCOc1cc(OCCCOc2ccccc2)cc(N(CC(=O)O)CC(=O)O)c1` [Example 58, N-(Carboxymethyl)-N-[3-(octadecyloxy)-5-(3-phenoxypropoxy)phenyl]glycine], for which the IC50 on HSF-PLA2 worked out at 60 nM. Also, the inhibition in vivo at 30 mg/kg in the test on PLA2 Rat Paw Edema came to 36%; in test [1] it was 29%. Besides, the “% Inhib of Croton Oil Mouse Ear Edema (1 mg)” value (from here on “% Inhib … (1 mg)”) in test [2] amounted to 78%. Moreover, the “Change in Paw Volume (mL) Treated” value in test [3] (10 mg/kg ip) is recorded as 0.37 ± 0.14 mL.
As for `CCCCCCCCCCCCCCCCCCOc1cc(C(=O)O)cc(N(CC(=O)O)CC(=O)O)c1` [Example 70, N-[3-Carboxy-5-(octadecyloxy)phenyl]-N-(carboxymethyl)glycine], at HSF-PLA2, the IC50 is 1000 nM. Further, the inhibition in vivo at 30 mg/kg with PLA2 Rat Paw Edema worked out at 45%. Further, the “% Inhib … (1 mg)” value in test [2] worked out at 0%. In addition, the “Change in Paw Volume (mL) Treated” value in test [3] (10 mg/kg ip) is 0.30 ± 0.09 mL.
Broadly, the inhibition is the share of the control response that was lost under treatment. Take `CCCCCCCCCCCCCCCCCCOc1cc(C(N)=O)cc(N(CC(=O)O)CC(=O)O)c1` [Example 75, N-(Carboxymethyl)-N-[(3-carbamoyl)-5-(octadecyloxy)phenyl]glycine]: the inhibition at 5 µM at HSF-PLA2 came out at 84%. Besides, the inhibition in vivo at 30 mg/kg in the test with PLA2 Rat Paw Edema came out at 33%. In addition, the “% Inhib … (1 mg)” value in test [2] came to 15%.
In the case of `CCCCCCCCCCCCCCCCCCOc1cc(O)cc(N(CC(=O)O)CC(=O)O)c1` [Example 81, N-(Carboxymethyl)-N-[3-hydroxy-5-(octadecyloxy)phenyl]glycine], on HSF-PLA2, the IC50 was 230 nM. Moreover, the “% Inhib of PLA2 Rat Paw Edema 2 hr” value in the test on PLA2 Rat Paw Edema ((10 mg/kg)) was determined as 44%. The “% Inhib … (1 mg)” value in test [2] amounted to 69%.
Take `CCCCCCCCCCCCCCCCCCOc1cc(OCCCP(=O)(O)OCC)cc(N(CC(=O)O)CC(=O)O)c1` [Example 89]: at HSF-PLA2, the inhibition at 1 µM was 31%. Besides, the inhibition in vivo at 30 mg/kg in the test on PLA2 Rat Paw Edema came to 45%. The “Change in Paw Volume (mL) Treated” value in test [3] (30 mg/kg ip) is recorded as -0.68 ± 0.08 mL.
On to `CCCCCCCCCCCCCCCCCCOc1cc(N(CC(=O)O)CC(=O)O)cc([N+](=O)[O-])c1` [Example 93, N-(Carboxymethyl)-N-[3-nitro-5-(octadecyloxy)phenyl]glycine], for which the inhibition at 1 µM on HSF-PLA2 was 56%. Besides, in the test with PLA2 Rat Paw Edema, the inhibition in vivo at 30 mg/kg was found to be 20%. For the same compound, the “% Inhib … (1 mg)” value in test [2] was 0%.
As for `CCCCCCCCCCCCCCCCCCOc1cc(N)cc(N(CC(=O)O)CC(=O)O)c1` [Example 94, N-(Carboxymethyl)-N-[3-amino-5-(octadecyloxy)phenyl]glycine], the IC50 at HSF-PLA2 was 420 nM. Also, the inhibition in vivo at 30 mg/kg in the test with PLA2 Rat Paw Edema came out at 28%. For the same compound, the “% Inhib … (1 mg)” value in test [2] is given as 10%.
Regarding `CCCCCCCCCCCCCCCCCCOc1cc(OCCCOc2cccc(Br)c2)cc(N(CC(=O)O)CC(=O)O)c1` [Example 108, N-(Carboxymethyl)-N-3-[3-[3-(bromophenoxy)propoxy]-5-(octadecyloxy)phenyl]glycine], the inhibition at 1 µM on HSF-PLA2 amounted to 92%. The inhibition in vivo at 30 mg/kg in the test on PLA2 Rat Paw Edema is 12%; in test [1] it was 33%. For the same compound, the “% Inhib … (1 mg)” value in test [2] came to 34%.
Take `CCCCCCCCCCCCCCOc1ccc(N(CC(=O)O)CC(=O)O)cc1OCCCCCCCCCCCCCC` [Example 119, N-(Carboxymethyl)-N-[3,4-bis(tetradecyloxy)phenyl]glycine]: the inhibition at 1 µM on HSF-PLA2 is 36%. Moreover, the inhibition in vivo at 30 mg/kg with PLA2 Rat Paw Edema was found to be 16%. In test [2], the “% Inhib … (1 mg)” value is 49%.
Take `CCCCCCCCCC(=O)Oc1ccc(N(CC(=O)O)CC(=O)O)cc1OC(=O)CCCCCCCCC` [Example 123, N-(Carboxymethyl)-N-[3,4-bis[(1-oxodecyl)oxy]phenyl]glycine]: at HSF-PLA2, the half-inhibitory concentration (IC50) amounted to 480 nM. For the same compound, in the test on PLA2 Rat Paw Edema, the inhibition in vivo at 30 mg/kg was 4%. Further, in test [2], the “% Inhib … (1 mg)” value is reported as 58%.
Take `CCCCCCCCCCCCCCCCCCOc1cc(OCCCCCc2cccc(O)c2O)cc(N(CC(=O)O)CC(=O)O)c1` [Example 146]: the half-maximal inhibitory concentration (IC50) at HSF-PLA2 worked out at 200 nM. Moreover, the inhibition in vivo at 30 mg/kg came out at 74% with PLA2 Rat Paw Edema and 55% in test [1]. Further, in test [2], the “% Inhib … (1 mg)” value was determined as 18%.
With `CCCCCCCCCCCCCCCCCCOc1cc(OCc2ccc3ccccc3n2)cc(N(CC(=O)O)CC(=O)O)c1` [Example 148, N-(Carboxymethyl)-N-[3-(octadecyloxy)-5-[(2-quinolinyl)methoxy]phenyl]glycine], on HSF-PLA2, the inhibition at 1 µM was 91%. Also, in the test on PLA2 Rat Paw Edema, the inhibition in vivo at 30 mg/kg stood at 37%. The “% Inhib … (1 mg)” value in test [2] amounted to 26%.
As to `CCCCCCCCCCCCCCCCCCOc1cc(OCCOCCOCCOCC)cc(N(CC(=O)O)CC(=O)O)c1` [Example 151], the inhibition at 1 µM on HSF-PLA2 came out at 100%. The inhibition in vivo at 30 mg/kg in the test on PLA2 Rat Paw Edema was found to be 43%. Further, the “% Inhib … (1 mg)” value in test [2] is listed as 54%. Moreover, the “Change in Paw Volume (mL) Treated” value in test [3] (10 mg/kg ip) was 0.28 ± 0.16 mL.
As to `CCCCCCCCCCCCCCCCCCOc1cc(OCCCCc2ccc3cc(O)c(O)cc3c2)cc(N(CC(=O)O)CC(=O)O)c1` [Example 154, N-(Carboxymethyl)-N-[3-[4-(2,3-dihydroxy-6-naphthalenyl)butoxy]-5-(octadecyloxy)phenyl]glycine], at HSF-PLA2, the inhibition at 1 µM is 96%. In addition, the figures for the inhibition in vivo at 30 mg/kg (in the test on PLA2 Rat Paw Edema; in test [1]) were 78% and 70%, respectively.
With `CCCCCCCCCCCCCCCCCCOc1cc(OCCCOc2ccc([S+](C)[O-])cc2)cc(N(CC(=O)O)CC(=O)O)c1` (stereo not shown) [Example 159], the inhibition at 1 µM at HSF-PLA2 stood at 100%. In addition, the inhibition in vivo at 30 mg/kg was found to be 78% with PLA2 Rat Paw Edema and 44% in test [1]. In test [2], the “% Inhib … (1 mg)” value was found to be 59%.
In the case of `CCCCCCCCCCCCCCCCCCOc1cc(OCCCOc2ccc(S(C)(=O)=O)cc2)cc(N(CC(=O)O)CC(=O)O)c1` [Example 161, N-(Carboxymethyl)-N-[3-[3-[4-(methylsulfonyl)phenoxy]propoxy]-5-(octadecyloxy)phenyl]glycine], the inhibition at 1 µM on HSF-PLA2 was 100%. Besides, the inhibition in vivo at 30 mg/kg was 66% in the test on PLA2 Rat Paw Edema and 56% in test [1]. Also, the “% Inhib … (1 mg)” value in test [2] came out at 87%.
With `CCCCCCCCCCCCCCCCCCOc1cc(NS(=O)(=O)C(F)(F)F)cc(N(CC(=O)O)CC(=O)O)c1` [Example 162, N-(Carboxymethyl)-N-[3-(octadecyloxy)-5-[[(trifluoromethyl)sulfonyl]amino]phenyl]glycine], on HSF-PLA2, the inhibition at 1 µM came to 82%. The inhibition in vivo at 30 mg/kg in the test with PLA2 Rat Paw Edema amounted to 65%; in test [1], 69%. In test [2], the “% Inhib … (1 mg)” value is 79%.
Consider `CCCCCCCCCCCCCCCCCCOc1cc(N(CC(=O)O)CC(=O)O)cc([S+]([O-])CC(=O)O)c1` (stereo not shown) [Example 168, [[3-[bis(Carboxymethyl)amino]-5-(octadecyloxy)phenyl]sulfinyl]acetic acid], for which the inhibition at 1 µM at HSF-PLA2 was found to be 26%. The inhibition in vivo at 30 mg/kg in the test on PLA2 Rat Paw Edema is 45%. Moreover, the “% Inhib … (1 mg)” value in test [2] is given as 83%.
On to `CCCCCCCCCCN(CCCCCCCCCC)C(=O)c1cccc(N(CC(=O)O)CC(=O)O)c1` [Example 174], for which the inhibition at 5 µM at HSF-PLA2 was found to be 74%. In addition, the inhibition in vivo at 30 mg/kg with PLA2 Rat Paw Edema was 46%. For the same compound, the “% Inhib … (1 mg)” value in test [2] was determined as 29%.
As to `CCCCCCCCCCCCCCCCCCOc1cc(OCCCOc2ccc(C(C)(C)C)cc2)cc(N(CC(=O)O)CC(=O)O)c1` [Example 177, N-(Carboxymethyl)-N-[3-[3-[4-(1,1-dimethylethyl)phenoxy]propoxy]-5-(octadecyloxy)phenyl]glycine], the inhibition at 1 µM on HSF-PLA2 was found to be 95%. Further, the inhibition in vivo at 30 mg/kg in the test with PLA2 Rat Paw Edema was 41%; in test [1] it was 57%. For the same compound, in test [2], the “% Inhib … (1 mg)” value was determined as 22%.
